PubChem BioAssay (NCI)
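All cell lines were grown in 96-well plates and treated with compound for 48 hours. Abbreviation: GI50, concentration required for 50% inhibition of growth. TGI denotes the concentration required for complete inhibition of growth.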

Key:
Test in all cases: NCI tumour cell line growth inhibition, 48 h
[1] = system: OVCAR-5 ovarian
[2] = system: MCF7 breast
[3] = system: NCI-H460 lung
[4] = system: SK-MEL-28 melanoma
[5] = system: M14 melanoma
[6] = system: UO-31 renal
[7] = system: HCC-2998 colon
[8] = system: SK-MEL-2 melanoma
[9] = system: NCI/ADR-RES ovarian
[10] = system: NCI-H226 lung

SMILES | TGI [1] | TGI [2] | TGI [3] | TGI [4] | TGI [5] | TGI [6] | TGI [7] | TGI [8] | TGI [9] | TGI [10] | GI50 [1] | GI50 [2] | GI50 [3] | GI50 [4] | GI50 [5] | GI50 [6] | GI50 [7] | GI50 [8] | GI50 [9]
COc1ccc(/C=C(\C#N)c2nc(N)nc(N3N=C(C)CC3(C)C)n2)c(O)c1 | 34.2 µM | 45.5 µM | 38.2 µM | 29.6 µM | 35.6 µM | 36 µM | 38.2 µM | 38.9 µM | 97.3 µM | 35.9 µM |  |  |  |  |  |  |  |  | 
CN(CCCNC(=O)c1cn(C)c2c1ccc1cc(Cl)c(Cl)cc12)CCCNC(=O)c1cn(C)c2c1ccc1cc(Cl)c(Cl)cc12 | 31.2 µM | 19.6 µM | 29.8 µM | 42 µM | 27.5 µM | 39.6 µM | 18.6 µM | 31.5 µM | 33.1 µM | 47.9 µM |  |  |  |  |  |  |  |  | 
Cc1cc(O)c(C(C)C)cc1CN1CCCCC1 | > 100 µM | > 100 µM | > 100 µM | > 100 µM | > 100 µM | > 100 µM | > 100 µM |  | > 100 µM | > 100 µM |  |  |  |  |  |  |  |  | 
OCCOCn1cc(Cn2ncc3c(SCc4ccccc4)ncnc32)nn1 | > 100 µM | > 100 µM | > 100 µM | > 100 µM | > 100 µM | > 100 µM | > 100 µM | > 100 µM | > 100 µM | > 100 µM |  |  |  |  |  |  |  |  | 
NCCNc1nc(N2CCCC2)c2nc(Cl)c(NCc3ccccc3)nc2n1 | 7.88 µM | 3.31 µM | 3.54 µM | 3.39 µM | 3.16 µM | 3.32 µM | 2.88 µM | 3.37 µM | 33.1 µM | 15.7 µM |  |  |  |  |  |  |  |  | 
CC(Sc1ccccc1)C(CO)(CO)[N+](=O)[O-] (configuration not stated) | 36.9 µM |  | 50.7 µM |  | 32.9 µM | 22.6 µM | 31.5 µM | 54 µM |  | 33 µM |  |  |  |  |  |  |  |  | 
COC(=O)C1C(C)N1C (configuration not stated) |  |  | > 100 µM | > 100 µM | > 100 µM |  | > 100 µM |  |  | > 100 µM |  |  |  |  |  |  |  |  | 
O=[n+]1c2c(n([O-])c3ccccc31)-c1cccc3cccc-2c13 |  | > 100 µM | > 100 µM |  | > 100 µM | > 100 µM | > 100 µM |  | > 100 µM | > 100 µM |  |  |  |  |  |  |  |  | 
NNC(=O)c1ccccc1Nc1ccccc1C(=O)NN | > 100 µM | > 100 µM | > 100 µM | > 100 µM | > 100 µM | > 100 µM | > 100 µM | > 100 µM | > 100 µM | > 100 µM |  |  |  |  |  |  |  |  | 
Nc1nc(N)c2c(n1)NC(c1ccccc1)CC(/C=C/c1ccc(Cl)cc1)=N2 (configuration not stated) | 32.5 µM | 16 µM | 18 µM | 28.1 µM | 28.3 µM | 23.4 µM |  | 42.7 µM | 11.3 µM | 27.7 µM |  |  |  |  |  |  |  |  | 
O=S(=O)(O)c1cccc2c(N=Nc3c(O)ccc4ccccc34)cccc12 | > 100 µM |  |  | > 100 µM | > 100 µM | > 100 µM |  | > 100 µM | > 100 µM | > 100 µM |  |  |  |  |  |  |  |  | 
N[C@H]1CCN(c2c(F)cc3c(=O)c(C(=O)O)cn4c3c2Oc2cc3c(ccc5ccccc53)cc2-4)C1 | > 100 µM | > 100 µM | 5.28 µM |  | > 100 µM | > 100 µM | 6.82 µM | 43.5 µM | > 100 µM | 58.5 µM |  |  |  |  |  |  |  |  | 
CC(=O)N(C)c1ccc2c(ccc[n+]2[O-])c1[N+](=O)[O-] | > 100 µM |  | > 100 µM | > 100 µM | > 100 µM | > 100 µM | > 100 µM | > 100 µM |  | > 100 µM |  |  |  |  |  |  |  |  | 
O=C1c2cc3c(cc2-c2c1c1ccc(Cl)cc1c(=O)n2C[C@H](O)[C@@H](O)[C@H](O)CO)OCO3 | 1.29 µM | 0.178 µM | 0.153 µM | 1.16 µM | 10.1 µM | 0.125 µM | 0.479 µM | 0.432 µM | 1.91 µM |  | 0.0524 µM | < 0.01 µM | 0.0284 µM | 0.0997 µM | 0.0292 µM | 0.0297 µM | 0.0638 µM | 0.194 µM | 0.0335 µM
CC(=O)OC1CC(O)CC2=CCC3C4CCC(C(C)(O)C(O)CC5COC(=O)C5C)C4(C)CCC3C21C (configuration not stated) | > 25 µM | > 25 µM | > 25 µM | > 25 µM | > 25 µM | > 25 µM | > 25 µM | > 25 µM |  | > 25 µM |  |  |  |  |  |  |  |  | 
CN(C)CCn1c(=O)c2ccc3c4c(nn3CCN(C)C)c3cc(N)ccc3n(c1=O)c24 | 0.111 µM | 1.17 µM | 0.0904 µM | 0.394 µM | 0.18 µM | 0.0501 µM | 1.04 µM | 0.089 µM | 0.749 µM | 0.759 µM |  |  |  |  |  |  |  |  | 
CCC(C)C1NC(=O)C2CCCN2C(=O)C(CC2CO2)OC(=O)CCNC(=O)C(C)N(C)C(=O)C(C(C)C)N(C)C1=O (configuration not stated) | > 100 µM | > 100 µM | > 100 µM | > 100 µM | 0.0179 µM | 15 µM | > 100 µM | 0.0341 µM | > 100 µM | > 17.1 µM |  |  |  |  |  |  |  |  | 
CC1(C)CCC2(C(=O)OC3OC(CO)C(O)C(O)C3O)CCC3(C)C(=CCC4C5(C)CCC(OC6OC(CO)C(O)C(O)C6O)C(C)(C)C5CCC43C)C2C1 (configuration not stated) | > 25 µM | > 25 µM | > 25 µM | > 25 µM | > 25 µM | > 25 µM | 9.83 µM | 14.8 µM |  | > 25 µM |  |  |  |  |  |  |  |  | 
